Data from patent US12522597B2, “Methods and compositions for modulating splicing” (Skyhawk Therapeutics, Inc., priority 2019, dated 2026).

Key:
mHTT protein = mHTT protein assay (2B7-MW1, Mesoscale Discovery); format: cell-based, human; settings: GM04724 (CAG 70/20) Huntington's disease patient lymphoblast cells, 48 hours, 2B7-MW1 MSD; read-out: HTT Potency - Protein EC50 mHTT (average)
Method in brief: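 mHTT levels were read with the 2B7-MW1 antibody pair (N17 and polyQ epitopes) on MSD after 48 h dosing, 10 μM–0.6 nM. Cells were GM04724 HD lymphoblasts (CAG 70/20). A replica plate was read by CTG for cell viability.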

[1] = test system: MDR1-MDCK cell monolayers; assay: MDCK-MDR1 permeability assay (BBB penetration potential); format: in vitro ADME; settings: dog, MDCK-MDR1, 120 min, 5 μM, pH 7.4
Protocol: (§1) Each determination is performed in duplicate. […] Analytical conditions are outlined below.

MDR1 = assay: as above; format: in vitro ADME; settings: dog; for efflux ratio at 120 min, 5 μM: MDCK-MDR1, pH 7.4, MDCK-MDR1: Efflux; for Papp A→B at 120 min, 5 μM: MDCK-MDR1, pH 7.4, MDCK-MDR1: Papp A-B; for Papp B→A at 120 min, 5 μM: MDCK-MDR1, pH 7.4, MDCK-MDR1: Papp B-A
Protocol: as §1

| Structure (SMILES) | EC50 (mHTT protein) [nM] | MDCK-MDR1: % Recov A-B [1] [%] | MDCK-MDR1: % Recov B-A [1] [%] | efflux ratio at 120 min, 5 μM (MDR1) | Papp A→B at 120 min, 5 μM (MDR1) [×10⁻⁶ cm/s] | Papp B→A at 120 min, 5 μM (MDR1) [×10⁻⁶ cm/s] |
| --- | --- | --- | --- | --- | --- | --- |
| Cn1ccc(=O)c2cc(-c3ccc(O[C@H]4C[C@]5(C)CCC[C@@](C)(N5)[C@H]4F)nn3)c(O)cc21 (single isomer, unassigned) [131-ENT1] | 501 to 10000 | 95 | 99 | 70 | 0.71 | 49.5 |
| O=c1cc(-c2cc(O)c(-c3ccc(O[C@@H]4C[C@H]5CCC[C@H](N5)[C@@H]4F)nn3)cc2F)cc[nH]1 (single isomer, unassigned) [57-ENT1] | 101 to 500 | 94 | 101 | 73 | 0.26 | 18.9 |
| Oc1cc(-c2ccnnc2)ccc1-c1ccc(O[C@@H]2C[C@H]3CCC[C@H](N3)[C@@H]2F)nn1 (single isomer, unassigned) [87-ENT1] | 101 to 500 | 92 | 100 | 20 | 2.75 | 55.8 |
| Cc1ncn(-c2ccc(-c3ccc(O[C@@H]4C[C@H]5CCC[C@H](N5)[C@@H]4F)nn3)c(O)c2)n1 (single isomer, unassigned) [70-ENT1] | 101 to 500 | 93 | 99 | 7 | 6.62 | 44.6 |
| Cn1cc(-c2ccc(-c3ccc(O[C@H]4C[C@@H]5COC[C@@H](N5)[C@H]4F)nn3)c(O)c2)cn1 (single isomer, unassigned) [124-ENT2] | 501 to 10000 | 86 | 89 | 3 | 16.9 | 43.5 |
| C[C@]12CC[C@](C)(N1)[C@H](F)[C@H](Oc1ccc(-c3ccc(-n4cccn4)cc3O)nn1)C2 (single isomer, unassigned) [153-ENT1] | 51 to 100 | 67 | 76 | 5 | 7.44 | 34.4 |
| C[C@]12CC[C@](C)(N1)[C@H](F)[C@H](Oc1ccc(-c3ccc(C#N)cc3O)nn1)C2 (single isomer, unassigned) [152-ENT1] | 501 to 10000 | 88 | 98 | 5 | 11.6 | 59.4 |
| N#Cc1ccc(-c2ccc(O[C@H]3C[C@@H]4CC[C@@H](N4)[C@H]3F)nn2)c(O)c1 (single isomer, unassigned) [111-ENT2] | 501 to 10000 | 92 | 96 | 4 | 14.4 | 58.7 |
| Oc1cc(-c2ccc3nncn3c2)ccc1-c1ccc(O[C@H]2C[C@@H]3CCC[C@@H](N3)[C@H]2F)nn1 (single isomer, unassigned) [73-ENT2] | 101 to 500 | 90 | 87 | 84 | 0.49 | 41.3 |
| Cc1ccc(-c2ccc(-c3ccc(O[C@@H]4C[C@H]5CCC[C@H](N5)[C@@H]4F)nn3)c(O)c2)s1 (single isomer, unassigned) [100-ENT1] | 101 to 500 | 16 | 49 | 1 | 0.99 | 0.68 |
| Oc1cc2cnccc2cc1-c1ccc(O[C@H]2C[C@@H]3CCC[C@@H](N3)[C@H]2F)nn1 (single isomer, unassigned) [80-ENT2] | 501 to 10000 | 72 | 84 | 3 | 9.2 | 32.1 |
